Data on eleven compounds can be found in ChEMBL document CHEMBL1128151, “Synthesis and bioactivities of heterocyclic lipids as PAF antagonists. 2” (Bioorg Med Chem Lett, 1995).

In assay [1] the test system is Cavia porcellus. Description: In vivo PAF-induced bronchoconstriction in guinea pigs at a dose of 0.01 mg/kg. Type of assay: functional.
In assay [2] the test system is Cavia porcellus. Description: In vivo inhibitory activity against platelet aggregation in guinea pigs. Type of assay: functional, organism-based.
Assay [3] concerns Mus musculus. Description: Survival ratio of ICR mice by the administration (0.3 mg/kg) along with endotoxin (55mg/Kg, ip) after 18 h. Type of assay: functional.
The subject of assay [4] is Mus musculus. Description: Survival ratio of ICR mice by the administration (0.3 mg/kg) along with endotoxin (55mg/Kg, ip) after 1 hr. Type of assay: functional.
Assay [5] concerns Mus musculus. Briefly: Survival ratio of ICR mice by the administration (0.3 mg/kg) along with endotoxin (55mg/Kg, ip) after 42h. Type of assay: functional.
In assay [6] the test system is Mus musculus. Description: Survival ratio of ICR mice by the administration (0.3 mg/kg) along with endotoxin (55mg/Kg, ip) after 66h. Type of assay: functional.
The test system of assay [7] is Mus musculus. Briefly: Survival ratio of ICR mice by the administration (0.3 mg/kg) along with endotoxin (55mg/Kg, ip) after 24 hr. Type of assay: functional.
Assay [8] deals with Mus musculus. Description: Survival ratio of ICR mice by the administration (0.3 mg/kg) along with endotoxin (55mg/Kg, ip) after 2 hr. Type of assay: functional.
For assay [9], the system named is Mus musculus. Description: Survival ratio of ICR mice by the administration (0.3 mg/kg) along with endotoxin (55mg/Kg, ip) after 48 hr. Type of assay: functional.
The test system of a further assay is Rattus norvegicus. Description: In vivo inhibitory activity against PAF-induced hypertension in SD rats by ip administration. Type of assay: functional.
Assay [10] relates to Cavia porcellus. Description: In vivo inhibitory activity against PAF-induced bronchoconstriction in guinea pigs at a dose of 0.01 mg/kg. Type of assay: functional.
In assay [11] the test system is Mus musculus. Briefly: In vivo inhibitory activity (1 mg/kg) against endotoxin-induced hemoconcentration in ICR mice with endotoxin concentration of 55 mg/kg. Type of assay: functional.
Assay [12] is described as follows: In vitro inhibitory activity against PAF-induced aggregation of rabbit platelets.

Compound `CCCCCCCCCCCCCCCCNC(=O)OC[C@@H]1C[C@@H](COC(=O)N(Cc2cccc[n+]2CC)C(C)=O)S1.[Cl-]` showed an Absolute in the assay on Cavia porcellus [1] of 7%. This compound yielded an IC50 in the assay on Cavia porcellus [2] of 21 nM. The Survival ratio in the assay on Mus musculus [3] came to 80; in the assay on Mus musculus [4] it was 100; in the assay with Mus musculus [5] it was 60; in the assay on Mus musculus [6], 60; with Mus musculus [7], 73; in the assay with Mus musculus [8], 100. Besides, the Survival ratio in the assay with Mus musculus [9] amounted to 60. In the assay on Rattus norvegicus, this compound showed an ED50 of 0.16 mg/kg. Moreover, at 0.01 mg/kg the inhibition in vivo in the assay on Cavia porcellus [10] was 92%.
With `CCCCCCCCCCCCCC(=O)OC(CCCCCCCCCCC)CC(=O)OC1C(NC(=O)CC(CCCCCCCCCCC)OC(=O)CCCCCCCCCCC)C(OC2CC(OC(=O)CC(O)CCCCCCCCCCC)C(NC(=O)CC(O)CCCCCCCCCCC)C(O)O2)OC(CO)C1OP(=O)(O)O.CCCCCCCCCCCCCCCCCCNC(=O)OC[C@H]1C[C@H](COC(=O)N(Cc2cccc[n+]2CC)C(C)=O)O1.[I-]` (stereo unspecified), in the assay with Mus musculus [11], the Change was determined as 53% and the Change of hemoconcentration turned out to be 12.7.
For `CCCCCCCCCCCCCCCCCCNC(=O)OC[C@H]1C[C@H](COC(=O)N(Cc2cccc[n+]2CC)C(C)=O)N1C(C)=O.[Cl-]`, the Absolute in the assay on Cavia porcellus [1] was found to be 5%. In the assay with Cavia porcellus [2], 29 nM corresponded to half-maximal inhibition (IC50). Further, the Survival ratio in the assay with Mus musculus [3] is on record as 73; in the assay with Mus musculus [4], 100; in the assay with Mus musculus [5] it was 53; in the assay on Mus musculus [6] it was 53; with Mus musculus [7], 73; in the assay with Mus musculus [8] it was 100. In the assay with Mus musculus [9], the Survival ratio was determined as 53. Besides, the ED50 in the assay on Rattus norvegicus is 0.33 mg/kg. This compound also gave an inhibition in vivo at 0.01 mg/kg with Cavia porcellus [10] of 95%.
In the case of `CCCCCCCCCCCCCC(=O)OC(CCCCCCCCCCC)CC(=O)OC1C(NC(=O)CC(CCCCCCCCCCC)OC(=O)CCCCCCCCCCC)C(OC2CC(OC(=O)CC(O)CCCCCCCCCCC)C(NC(=O)CC(O)CCCCCCCCCCC)C(O)O2)OC(CO)C1OP(=O)(O)O` (stereo unspecified), in the assay with Mus musculus [11], the Change came out at 100% and the Change of hemoconcentration was 24.
In the assay on Mus musculus [11], `CCCCCCCCCCCCCC(=O)OC(CCCCCCCCCCC)CC(=O)OC1C(NC(=O)CC(CCCCCCCCCCC)OC(=O)CCCCCCCCCCC)C(OC2CC(OC(=O)CC(O)CCCCCCCCCCC)C(NC(=O)CC(O)CCCCCCCCCCC)C(O)O2)OC(CO)C1OP(=O)(O)O.CCCCCCCCCCCCCCCCNC(=O)OC[C@@H]1C[C@@H](COC(=O)N(Cc2cccc[n+]2CC)C(C)=O)S1.[Cl-]` (stereo unspecified) returned a Change of 53% and a Change of hemoconcentration of 12.7.
`CCCCCCCCCCCCCCCCCCNC(=O)OCC(COC(=O)N(Cc1cccc[n+]1CC)C(C)=O)OC.[Cl-]` (stereo unspecified) [CV-6209] showed an Absolute in the assay on Cavia porcellus [1] of 12%. Further, in the assay with Mus musculus [11], the Change is 48%. In the assay on Rattus norvegicus, it took a dose of 0.35 mg/kg to reach the 50% effect level (ED50). The compound further showed an inhibition in vivo at 0.01 mg/kg with Cavia porcellus [10] of 87%.
As to `CCCCCCCCCCCCCC(=O)OC(CCCCCCCCCCC)CC(=O)OC1C(NC(=O)CC(CCCCCCCCCCC)OC(=O)CCCCCCCCCCC)C(OC2CC(OC(=O)CC(O)CCCCCCCCCCC)C(NC(=O)CC(O)CCCCCCCCCCC)C(O)O2)OC(CO)C1OP(=O)(O)O.CCCCCCCCCCCCCCCCCCNC(=O)OC[C@@H]1C[C@@H](COC(=O)N(Cc2cccc[n+]2CC)C(C)=O)N1C(C)=O.[Cl-]` (stereo unspecified), in the assay with Mus musculus [11], the Change was determined as 55% and the Change of hemoconcentration turned out to be 13.1.
For `CCCCCCCCCCCCCC(=O)OC(CCCCCCCCCCC)CC(=O)O[C@@H]1[C@@H](NC(=O)CC(CCCCCCCCCCC)OC(=O)CCCCCCCCCCC)[C@H](O[C@@H]2C[C@H](OC(=O)CC(O)CCCCCCCCCCC)[C@@H](NC(=O)CC(O)CCCCCCCCCCC)[C@@H](O)O2)O[C@H](CO)[C@H]1OP(=O)(O)O.CCCCCCCCCCCCCCCCCCNC(=O)OC[C@H]1C[C@H](COC(=O)N(Cc2cccc[n+]2CC)C(C)=O)C1.[I-]` (stereo partly specified), in the assay on Mus musculus [11], the Change stood at 25% and the Change of hemoconcentration came to 5.9.
`C[C@@H]1C(=O)O[C@H]2C(O)[C@@]34[C@H]5C[C@@H](C(C)(C)C)[C@]36[C@@H](OC(=O)[C@@H]6O)O[C@@]4(C(=O)O5)[C@@]12O` (single isomer, unassigned) [GINKOLIDE B]: 418 nM corresponded to half-maximal inhibition in assay [12] (IC50).
With `CCCCCCCCCCCCCCCCCCNC(=O)OC[C@H]1C[C@H](COC(=O)N(Cc2cccc[n+]2CC)C(C)=O)O1.[I-]`, the Absolute in the assay with Cavia porcellus [1] is on record as 7%. Besides, the ED50 in the assay with Rattus norvegicus was 0.28 mg/kg. This compound also gave an inhibition in vivo at 0.01 mg/kg in the assay with Cavia porcellus [10] of 92%.
With `CCCCCCCCCCCCCCCCCCNC(=O)OC[C@H]1C[C@H](COC(=O)N(Cc2cccc[n+]2CC)C(C)=O)C1.[I-]`, the Absolute in the assay on Cavia porcellus [1] was 12%. Further, the IC50 with Cavia porcellus [2] was determined as 56 nM. The Survival ratio turned out to be 80 with Mus musculus [3]; 100 with Mus musculus [4]; 40 in the assay with Mus musculus [5]; 27 with Mus musculus [6]; 73 in the assay on Mus musculus [7]; 100 in the assay with Mus musculus [8]. The Survival ratio in the assay on Mus musculus [9] stood at 33. The compound further gave a 50% effective dose (ED50) in the assay on Rattus norvegicus of 0.58 mg/kg. Testing at 0.01 mg/kg in the assay with Cavia porcellus [10] gave an inhibition in vivo of 87%.

By IC50 is commonly meant the concentration that inhibits the measured activity by half. A low value points to greater potency in that assay. As a reminder, the ED50 is the dose at which the effect has come halfway, by size or by number of responders. High values mean weaker potency, low ones greater potency. What is called inhibition in vivo is the change of the read-out against control, counted positive when it falls. Low values mean a response near the control, high ones a response far below the control.
